Assay [1] addresses T1, 5-HT2A receptor (Homo sapiens, UniProt P28223). Nature of the assay: FLIPR calcium mobilization functional assay, human 5-HT2A receptor. The note with it: for Selectivity α1A/5-HT2A: ratio of Ke α1A / Ke 5-HT2A. (Calcium flux is commonly read through the fluorescence of an indicator in the cells.)
In assay [2] the target is T2, α1A adrenergic receptor (Homo sapiens, UniProt P35348).
T2 sequence (P35348 1-466): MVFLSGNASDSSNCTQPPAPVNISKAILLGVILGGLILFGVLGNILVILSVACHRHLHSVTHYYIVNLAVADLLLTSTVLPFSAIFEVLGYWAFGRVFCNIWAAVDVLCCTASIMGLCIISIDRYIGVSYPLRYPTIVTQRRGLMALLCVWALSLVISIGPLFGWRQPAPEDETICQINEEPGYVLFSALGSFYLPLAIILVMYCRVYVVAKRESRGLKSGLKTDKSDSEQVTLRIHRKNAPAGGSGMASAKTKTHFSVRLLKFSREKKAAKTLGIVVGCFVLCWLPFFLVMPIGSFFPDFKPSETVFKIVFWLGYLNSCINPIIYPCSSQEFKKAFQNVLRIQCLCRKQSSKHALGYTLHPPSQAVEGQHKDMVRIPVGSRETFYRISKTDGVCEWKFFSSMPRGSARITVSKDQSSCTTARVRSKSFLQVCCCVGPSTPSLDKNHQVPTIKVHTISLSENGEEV
Nature of the assay: FLIPR calcium mobilization functional assay, α1A adrenergic receptor.

Assay [3] has as its target T2, α1A adrenergic receptor. The note with it: prior SAR studies; cited from earlier work.
In the next assay the target is α1A (Homo sapiens, UniProt P35348). In words: PDSP screening. The note with it: no affinity.
Another assay deals with 5-HT6 (Homo sapiens, UniProt P50406). In words: PDSP screening.
For a further assay, the target named is 5-HT5A (Homo sapiens, UniProt P47898). Nature of the assay: PDSP screening. Conditions: no affinity.
The target in the next assay is H3 (Homo sapiens, UniProt Q9Y5N1). Nature of the assay: PDSP screening. Conditions: no affinity.
Another assay has as its target D4 (Homo sapiens, UniProt P21917). In words: PDSP screening. The note with it: no affinity.
The next assay concerns the target M4 (Homo sapiens, UniProt P08173). In words: PDSP screening. Conditions: no affinity.
The target in assay [4] is T1, 5-HT2A receptor. Nature of the assay: PDSP screening.
A further assay has as its target 5-HT2C (Homo sapiens, UniProt P28335). Nature of the assay: PDSP screening.
In a further assay the target is α1D (Homo sapiens, UniProt P25100). Nature of the assay: PDSP screening. The note with it: no affinity.
In a further assay the target is PBR (Rattus norvegicus, UniProt P16257). Nature of the assay: PDSP screening.
A further assay deals with KOR (Homo sapiens, UniProt P41145). Nature of the assay: PDSP screening. Conditions: no affinity.
For the next assay, the system named is GABAA. In words: PDSP screening. The note with it: no affinity.
For the next assay, the target named is DOR (Homo sapiens, UniProt P41143). In words: PDSP screening. The note with it: no affinity.
The next assay concerns the target M1 (Homo sapiens, UniProt P11229). In words: PDSP screening. The note with it: no affinity.
Another assay concerns the target H1 (Homo sapiens, UniProt P35367). Nature of the assay: PDSP screening. The note with it: no affinity.
For the next assay, the target named is SERT (Homo sapiens, UniProt P31645). Nature of the assay: PDSP screening. Conditions: no affinity.
In another assay the target is NET (Homo sapiens, UniProt P23975). In words: PDSP screening. The note with it: no affinity.
The test system of the next assay is BZP rat brain site. In words: PDSP screening. The note with it: no affinity.
The next assay deals with β3 (Homo sapiens, UniProt P13945). In words: PDSP screening. Conditions: no affinity.
A further assay addresses D5 (Homo sapiens, UniProt P21918). Nature of the assay: PDSP screening. Conditions: no affinity.
The next assay addresses α1B (Homo sapiens, UniProt P35368). In words: PDSP screening. Conditions: no affinity.
A further assay concerns the target β1 (Homo sapiens, UniProt P08588). Nature of the assay: PDSP screening. The note with it: no affinity.
The next assay concerns the target β2 (Homo sapiens, UniProt P07550). In words: PDSP screening. Conditions: no affinity.
A further assay addresses DAT (Homo sapiens, UniProt Q01959). Nature of the assay: PDSP screening.
For a further assay, the target named is α2A (Homo sapiens, UniProt P08913). Nature of the assay: PDSP screening.
The target in a further assay is M2 (Homo sapiens, UniProt P08172). In words: PDSP screening. Conditions: no affinity.
In another assay the target is H4 (Homo sapiens, UniProt Q9H3N8). In words: PDSP screening. Conditions: no affinity.
The target in the next assay is D2 (Homo sapiens, UniProt P14416). In words: PDSP screening. Conditions: no affinity.
A further assay addresses MOR (Homo sapiens, UniProt P35372). Nature of the assay: PDSP screening. The note with it: no affinity.
For a further assay, the target named is M3 (Homo sapiens, UniProt P20309). In words: PDSP screening. Conditions: no affinity.
A further assay has as its target 5-HT1A (Homo sapiens, UniProt P08908). Nature of the assay: PDSP screening. Conditions: no affinity.
For a further assay, the target named is sigma-2 (Rattus norvegicus, UniProt Q5U3Y7). Nature of the assay: PDSP screening.

In general, Ki refers to the dissociation constant of the complex between target and ligand, obtained from inhibition or displacement. High values mean weaker binding, low ones tighter binding.

T1 sequence (P28223 whole entry): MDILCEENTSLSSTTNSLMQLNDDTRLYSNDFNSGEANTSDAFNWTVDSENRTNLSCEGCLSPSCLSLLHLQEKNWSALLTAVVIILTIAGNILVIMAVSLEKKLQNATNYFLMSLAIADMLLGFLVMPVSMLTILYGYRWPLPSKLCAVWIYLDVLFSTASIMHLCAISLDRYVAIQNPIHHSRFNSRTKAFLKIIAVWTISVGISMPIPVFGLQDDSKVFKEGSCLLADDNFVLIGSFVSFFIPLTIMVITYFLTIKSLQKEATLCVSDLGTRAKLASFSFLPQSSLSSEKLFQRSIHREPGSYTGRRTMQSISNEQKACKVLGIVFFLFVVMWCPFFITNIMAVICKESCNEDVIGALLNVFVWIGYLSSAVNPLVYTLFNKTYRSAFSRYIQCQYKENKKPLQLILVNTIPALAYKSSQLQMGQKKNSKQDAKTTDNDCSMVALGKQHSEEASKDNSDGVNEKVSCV
5-HT6, sequence (P50406 whole entry, species assumed): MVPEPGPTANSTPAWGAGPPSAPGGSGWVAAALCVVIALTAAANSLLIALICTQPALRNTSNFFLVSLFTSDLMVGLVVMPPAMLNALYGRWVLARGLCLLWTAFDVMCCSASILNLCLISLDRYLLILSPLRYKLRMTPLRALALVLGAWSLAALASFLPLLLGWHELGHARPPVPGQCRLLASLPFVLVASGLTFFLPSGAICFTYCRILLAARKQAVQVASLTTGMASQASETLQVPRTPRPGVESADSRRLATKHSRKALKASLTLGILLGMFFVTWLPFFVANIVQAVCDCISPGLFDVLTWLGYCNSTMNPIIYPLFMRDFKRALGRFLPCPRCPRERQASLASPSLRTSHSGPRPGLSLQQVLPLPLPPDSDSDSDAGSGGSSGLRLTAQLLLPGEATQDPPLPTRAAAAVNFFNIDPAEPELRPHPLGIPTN
NET, sequence (P23975 whole entry): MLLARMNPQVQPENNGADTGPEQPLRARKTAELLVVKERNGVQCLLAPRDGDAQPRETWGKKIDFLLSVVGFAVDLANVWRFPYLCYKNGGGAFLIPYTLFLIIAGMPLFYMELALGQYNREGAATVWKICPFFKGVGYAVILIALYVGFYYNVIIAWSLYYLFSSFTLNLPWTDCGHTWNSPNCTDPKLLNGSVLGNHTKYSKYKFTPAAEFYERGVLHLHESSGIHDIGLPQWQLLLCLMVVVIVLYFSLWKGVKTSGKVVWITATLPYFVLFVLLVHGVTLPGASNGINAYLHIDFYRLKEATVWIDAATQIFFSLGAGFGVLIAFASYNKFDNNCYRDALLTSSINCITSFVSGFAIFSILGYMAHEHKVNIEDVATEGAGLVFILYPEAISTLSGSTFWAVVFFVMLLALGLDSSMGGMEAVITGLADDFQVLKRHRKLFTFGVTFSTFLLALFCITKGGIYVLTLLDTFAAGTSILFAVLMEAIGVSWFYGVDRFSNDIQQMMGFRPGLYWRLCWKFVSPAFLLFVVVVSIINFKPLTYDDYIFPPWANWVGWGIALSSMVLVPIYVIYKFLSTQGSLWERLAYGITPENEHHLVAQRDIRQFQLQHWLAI
α1B, sequence (P35368 whole entry): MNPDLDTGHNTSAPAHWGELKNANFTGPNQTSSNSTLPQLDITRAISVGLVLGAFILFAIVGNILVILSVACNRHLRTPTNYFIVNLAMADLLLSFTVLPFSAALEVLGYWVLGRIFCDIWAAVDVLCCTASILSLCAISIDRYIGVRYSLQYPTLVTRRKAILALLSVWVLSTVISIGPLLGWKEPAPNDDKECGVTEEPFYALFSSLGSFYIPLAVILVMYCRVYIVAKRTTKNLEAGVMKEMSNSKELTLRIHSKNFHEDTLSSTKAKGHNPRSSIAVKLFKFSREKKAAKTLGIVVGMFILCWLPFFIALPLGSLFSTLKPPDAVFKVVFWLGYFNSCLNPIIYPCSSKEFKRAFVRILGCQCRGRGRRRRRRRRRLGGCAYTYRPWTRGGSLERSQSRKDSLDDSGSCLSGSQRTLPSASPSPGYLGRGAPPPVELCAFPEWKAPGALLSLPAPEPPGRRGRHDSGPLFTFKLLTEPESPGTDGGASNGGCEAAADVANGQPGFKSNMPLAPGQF
α2A, sequence (P08913 whole entry): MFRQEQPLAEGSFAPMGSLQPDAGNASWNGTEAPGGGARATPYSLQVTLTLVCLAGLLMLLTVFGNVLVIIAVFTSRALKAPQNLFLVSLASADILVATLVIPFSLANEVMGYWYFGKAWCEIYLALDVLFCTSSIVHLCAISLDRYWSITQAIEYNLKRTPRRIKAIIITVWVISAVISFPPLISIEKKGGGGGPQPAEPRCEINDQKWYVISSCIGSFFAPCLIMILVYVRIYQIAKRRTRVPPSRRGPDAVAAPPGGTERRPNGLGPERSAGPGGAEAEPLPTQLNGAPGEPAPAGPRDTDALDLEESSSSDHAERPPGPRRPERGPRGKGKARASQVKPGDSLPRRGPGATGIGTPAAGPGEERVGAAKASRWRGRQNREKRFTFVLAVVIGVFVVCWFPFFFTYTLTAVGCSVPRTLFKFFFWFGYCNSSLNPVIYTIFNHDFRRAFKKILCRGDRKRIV
DOR, sequence (P41143 whole entry): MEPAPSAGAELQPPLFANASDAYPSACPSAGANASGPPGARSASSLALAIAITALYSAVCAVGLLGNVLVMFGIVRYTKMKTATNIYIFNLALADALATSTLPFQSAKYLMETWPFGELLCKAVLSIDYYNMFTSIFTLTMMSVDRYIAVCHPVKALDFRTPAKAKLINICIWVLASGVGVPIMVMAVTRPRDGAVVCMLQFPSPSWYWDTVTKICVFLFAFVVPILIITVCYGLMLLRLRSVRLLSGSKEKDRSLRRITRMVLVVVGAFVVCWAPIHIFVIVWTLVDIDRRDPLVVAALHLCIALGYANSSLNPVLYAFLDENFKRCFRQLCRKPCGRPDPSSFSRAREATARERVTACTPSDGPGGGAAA
5-HT2C, sequence (P28335 33-458, species assumed): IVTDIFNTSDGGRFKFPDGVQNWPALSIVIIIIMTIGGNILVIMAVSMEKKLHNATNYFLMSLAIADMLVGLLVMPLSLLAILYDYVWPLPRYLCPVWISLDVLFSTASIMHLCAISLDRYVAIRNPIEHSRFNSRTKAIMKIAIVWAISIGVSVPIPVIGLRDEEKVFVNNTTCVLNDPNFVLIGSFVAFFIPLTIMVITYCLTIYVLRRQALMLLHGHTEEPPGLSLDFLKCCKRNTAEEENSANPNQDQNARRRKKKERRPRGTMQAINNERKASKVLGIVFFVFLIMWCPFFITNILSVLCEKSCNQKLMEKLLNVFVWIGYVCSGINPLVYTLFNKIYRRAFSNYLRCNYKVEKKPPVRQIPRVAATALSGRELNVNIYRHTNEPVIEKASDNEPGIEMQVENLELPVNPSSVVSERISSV
β1, sequence (P08588 whole entry): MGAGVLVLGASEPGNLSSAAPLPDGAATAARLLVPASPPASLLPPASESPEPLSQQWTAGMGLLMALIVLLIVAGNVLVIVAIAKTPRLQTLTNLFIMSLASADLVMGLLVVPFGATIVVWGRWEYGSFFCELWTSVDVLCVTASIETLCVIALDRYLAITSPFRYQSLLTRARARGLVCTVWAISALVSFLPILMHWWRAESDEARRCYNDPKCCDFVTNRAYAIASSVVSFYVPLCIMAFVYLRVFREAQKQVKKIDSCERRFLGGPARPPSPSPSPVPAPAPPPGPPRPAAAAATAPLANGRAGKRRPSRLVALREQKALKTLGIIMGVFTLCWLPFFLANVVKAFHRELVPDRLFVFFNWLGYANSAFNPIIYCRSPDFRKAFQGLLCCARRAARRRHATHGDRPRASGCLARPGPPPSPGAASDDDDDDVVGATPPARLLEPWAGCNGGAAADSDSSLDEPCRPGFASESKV
5-HT1A, sequence (P08908 whole entry): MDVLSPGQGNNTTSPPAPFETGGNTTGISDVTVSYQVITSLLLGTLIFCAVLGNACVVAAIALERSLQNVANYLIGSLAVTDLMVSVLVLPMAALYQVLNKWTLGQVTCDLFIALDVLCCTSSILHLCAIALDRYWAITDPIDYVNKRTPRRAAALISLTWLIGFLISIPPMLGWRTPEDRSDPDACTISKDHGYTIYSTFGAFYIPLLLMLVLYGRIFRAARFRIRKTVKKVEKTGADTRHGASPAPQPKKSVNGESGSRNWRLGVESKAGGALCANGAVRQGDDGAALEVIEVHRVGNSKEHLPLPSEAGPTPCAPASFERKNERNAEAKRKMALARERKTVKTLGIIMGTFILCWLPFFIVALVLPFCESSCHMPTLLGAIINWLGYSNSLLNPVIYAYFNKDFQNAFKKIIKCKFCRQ
M1, sequence (P11229 whole entry): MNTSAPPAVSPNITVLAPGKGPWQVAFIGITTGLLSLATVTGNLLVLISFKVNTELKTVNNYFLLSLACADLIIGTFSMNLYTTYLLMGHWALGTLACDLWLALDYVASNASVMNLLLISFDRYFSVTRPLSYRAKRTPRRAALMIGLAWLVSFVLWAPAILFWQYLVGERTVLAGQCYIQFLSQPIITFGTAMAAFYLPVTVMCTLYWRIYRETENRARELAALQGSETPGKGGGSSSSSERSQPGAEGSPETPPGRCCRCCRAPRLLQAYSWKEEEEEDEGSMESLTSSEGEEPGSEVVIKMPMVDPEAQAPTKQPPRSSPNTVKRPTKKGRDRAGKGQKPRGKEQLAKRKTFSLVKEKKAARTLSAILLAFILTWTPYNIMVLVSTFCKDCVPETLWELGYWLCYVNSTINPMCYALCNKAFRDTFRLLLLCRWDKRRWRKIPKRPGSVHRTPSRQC
sigma-2, sequence (Q5U3Y7 whole entry): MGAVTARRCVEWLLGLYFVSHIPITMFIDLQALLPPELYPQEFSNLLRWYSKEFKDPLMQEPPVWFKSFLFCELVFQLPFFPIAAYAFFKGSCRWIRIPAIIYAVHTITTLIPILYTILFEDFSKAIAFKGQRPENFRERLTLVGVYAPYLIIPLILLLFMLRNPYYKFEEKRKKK

For the molecule `COc1cc2c3c(c1OCCOC(C)=O)-c1cc4c(cc1CC3N(C)CC2)OCO4` (stereo not drawn) [Compound 8h], the figures for the Kb at 5-HT2A receptor [1] and on α1A adrenergic receptor [2] were 1910 nM and 591 ± 81 nM, respectively.

As for `C=CCOc1c(OC)cc2c3c1-c1cc4c(cc1CC3N(C)CC2)OCO4` (stereo not drawn) [Compound 5], the Kb at α1A adrenergic receptor [2] is > 10000 nM. On α1A adrenergic receptor [3], the “affinity for the α1A adrenergic receptor” value is reported as “devoid of affinity”.

As to `C=C(C)COc1c(OC)cc2c3c1-c1cc4c(cc1CC3N(C)CC2)OCO4` (stereo not drawn) [Compound 8b], on α1A adrenergic receptor [2], the Kb was > 10000 nM.

On to `COc1cc2c3c(c1OCc1ccc(C(F)(F)F)cc1)-c1cc4c(cc1CC3N(C)CC2)OCO4` (stereo not drawn) [Compound 8j], for which, on 5-HT2A receptor [1], the Kb turned out to be 2460 nM and the “Selectivity α1A/5-HT2A” value is reported as > 4.1. Besides, at α1A adrenergic receptor [2], the Kb was > 10000 nM.

With `COc1cc2c3c(c1OC/C=C/c1ccccc1)-c1cc4c(cc1CC3N(C)CC2)OCO4` (stereo not drawn) [Compound 8e], the Kb on 5-HT2A receptor [1] and at α1A adrenergic receptor [2] was > 10000 nM throughout.

Take `COc1cc2c3c(c1OCC=C(C)C)-c1cc4c(cc1CC3N(C)CC2)OCO4` (stereo not drawn) [Compound 8c]: the Kb on α1A adrenergic receptor [2] was > 10000 nM.

Consider `COc1cc2c3c(c1OCc1ccc(Cl)cc1)-c1cc4c(cc1CC3N(C)CC2)OCO4` (stereo not drawn) [Compound 8i], for which the Kb was 6050 nM at 5-HT2A receptor [1] and > 10000 nM at α1A adrenergic receptor [2]. In addition, on 5-HT2A receptor [1], the “Selectivity α1A/5-HT2A” value is given as > 1.7.

Consider `COc1cc2c3c(c1OCC#N)-c1cc4c(cc1CC3N(C)CC2)OCO4` (stereo not drawn) [Compound 8g], for which, at 5-HT2A receptor [1], the Kb was > 10000 nM and the “Selectivity α1A/5-HT2A” value is given as < 0.07. Moreover, the Kb on α1A adrenergic receptor [2] amounted to 711 ± 64 nM.

With `COc1cc2c3c(c1OCc1ccc(Br)cc1)-c1cc4c(cc1CC3N(C)CC2)OCO4` (stereo not drawn) [Compound 8k], the “inhibition in a primary assay, α1A” value on α1A is “less than 50%”. In addition, the Ki at 5-HT6 is 300 to 900 nM; at 5-HT2A receptor [4] it was 185 nM; on 5-HT2C it was 300 to 900 nM; at PBR, > 900 nM; at DAT it was 300 to 900 nM; on α2A it was 300 to 900 nM. The Ki at sigma-2 lay within 300 to 900 nM. The “inhibition in a primary assay, 5-HT5A” value at 5-HT5A is “less than 50%”. Moreover, the “inhibition in a primary assay, H3” value against H3 is listed as “less than 50%”. The “inhibition in a primary assay, D4” value against D4 was “less than 50%”. Further, the “inhibition in a primary assay, M4” value on M4 is “less than 50%”. For the same molecule, the “inhibition in a primary assay, α1D” value against α1D is on record as “less than 50%”. The Kb on 5-HT2A receptor [1] is 9.2 ± 2.6 nM; on α1A adrenergic receptor [2], > 10000 nM. Further, the “Selectivity α1A/5-HT2A” value on 5-HT2A receptor [1] was >1,086. Besides, the “inhibition in a primary assay, KOR” value against KOR was “less than 50%”. Moreover, in the assay on GABAA, the “inhibition in a primary assay, GABAA” value is given as “less than 50%”. In addition, the “inhibition in a primary assay, DOR” value against DOR is reported as “less than 50%”. Besides, on M1, the “inhibition in a primary assay, M1” value was “less than 50%”. Besides, on H1, the “inhibition in a primary assay, H1” value is “less than 50%”. Also, the “inhibition in a primary assay, SERT” value against SERT is “less than 50%”. Besides, the “inhibition in a primary assay, NET” value on NET is recorded as “less than 50%”. For the same molecule, the “inhibition in a primary assay, BZP rat brain site” value in the assay on BZP rat brain site was “less than 50%”. The “inhibition in a primary assay, β3” value against β3 is reported as “less than 50%”. For the same molecule, the “inhibition in a primary assay, D5” value at D5 is recorded as “less than 50%”. For the same molecule, at α1B, the “inhibition in a primary assay, α1B” value is on record as “less than 50%”. For the same molecule, the “inhibition in a primary assay, β1” value against β1 is on record as “less than 50%”. The “inhibition in a primary assay, β2” value at β2 is recorded as “less than 50%”. Also, the “inhibition in a primary assay, M2” value against M2 is given as “less than 50%”. Besides, the “inhibition in a primary assay, H4” value at H4 is recorded as “less than 50%”. Besides, the “inhibition in a primary assay, D2” value at D2 is recorded as “less than 50%”. Also, the “inhibition in a primary assay, MOR” value against MOR was “less than 50%”. In addition, on M3, the “inhibition in a primary assay, M3” value was “less than 50%”. Besides, at 5-HT1A, the “inhibition in a primary assay, 5-HT1A” value is listed as “less than 50%”.

For `C/C=C/COc1c(OC)cc2c3c1-c1cc4c(cc1CC3N(C)CC2)OCO4` (stereo not drawn) [Compound 8a], the Kb at α1A adrenergic receptor [2] came to 1980 nM.

With `COc1cc2c3c(c1OC)-c1cc4c(cc1CC3N(C)CC2)OCO4` (stereo not drawn) [Compound 4, nantenine, reference compound], the Kb on α1A adrenergic receptor [2] stood at 36 ± 7 nM.

The values are drawn from publication PMC4628873 (Bioorganic & medicinal chemistry letters, 2015).
